In patent US7291617B2, “Arylamidine derivative or salt thereof” (Toyama Chemical Co., Ltd., priority 2003, dated 2007):
Structures can show the parent of a compound that is named as a salt. Where two headings read alike, the source gives them in different places.

Legend:
[1] = system: Candida albicans TIMM 1623; assay: Antifungal action, microbroth dilution growth inhibition; assay type: cell-based; conditions: read-out: IC50 (50% growth inhibitory concentration)
Experimental: 50% growth inhibitory concentration (IC50) was measured according to the microbroth dilution method, using, as a reference, the antifungal agent sensitivity test method proposed by the subcommittee for the antifungal agent sensitivity test, the Japanese Society for Medical Mycology (Japanese Journal of Medical Mycology, vol. 36, No. 1, pp. 62 to 64, 1995). Synthetic amino acid medium, fungal (SAAMF, manufactured by Nippon Bio-Supp. Center) was used as a medium for measurement of sensitivity. Candida albicans TIMM 1623 was cultured at 30° C. overnight on a Sabouraud agar plate medium (Eiken Chemical Co., Ltd.), and the obtained culture was suspended in a sterilized physiological saline solution. Thereafter, the suspension was diluted with a measurement medium such that the number of cells became 1×10^4 cells/ml, thereby producing an inoculum organism solution. 175 μl of a medium, 5 μl of a test agent (an agent diluted solvent in a growth control well), and 20 μl of the inoculum organism solution were added to a 96-well microplate (flat bottom, manufactured by Sumitomo Bakelite Co., Ltd.), and the mixture was stirred with a mixer. Thereafter, using a well Reader SME3400 (Scinics Co., Ltd.), an initial turbidity at a wavelength of 630 nm was measured. The above mixture was cultured at 35° C., and 36 hours later, a final turbidity was measure in the same manner. For an agent-diluted line, values were obtained by subtracting the initial turbidities from the final turbidities. For a growth control line also, values were obtained by subtracting the initial turbidities from the final turbidities. IC50 was defined as the lowest agent concentration among the test agent concentrations having a turbidity equal to or lower than the 50% value (IC50 calculated value) of a value obtained by subtracting the initial turbidity of a growth control from the final turbidity thereof.

[2] = system: Candida albicans TIMM 1623; assay: Therapeutic effect on mouse systemic Candida albicans infection, 7 subcutaneous doses, survival to day 28; assay type: in vivo, ICR male mice; conditions: 0.2 ml of 0.01 mg/ml solution subcutaneously once a day, 7 times in total; five mice per group; control group all died
Experimental: Candida albicans TIMM 1623 was cultured at 30° C. overnight on a Sabouraud agar plate medium (Eiken Chemical Co., Ltd.), and the cultured fumgus was suspended in a sterilized physiological saline solution. Thus, a fungal solution for infection, having a concentration of approximately 10^7 cells/ml, was prepared. 0.2 ml of this fungal solution was inoculated into the tail vein of each of five ICR male mice (4-week-old, body weight of 20±1 g). 2 hours after the infection, 0.2 ml of a solution, which had been prepared by dissolving a test compound into a sterilized physiological saline solution and adjusting the concentration at 0.01 mg/ml, was administered once into the dorsal subcutis of each mouse. From the following day, the same solution was administered thereto once a day for 6 days. Thus, the above solution was administered into the dorsal subcutis of the mice 7 times in total. To mice of a control group, an equal amount of a sterilized physiological saline solution was administered. Viability of the mice was observed until the 28th day after the infection.

[3] = system: Candida albicans TIMM 1623; assay: Therapeutic effect on mouse systemic Candida albicans infection, single subcutaneous dose, T/C survival; assay type: in vivo, ICR male mice; conditions: 0.1 mg/kg, administered once into the dorsal subcutis 2 hours after infection; observed until the 14th day
Experimental: Candida albicans TIMM 1623 was cultured at 30° C. overnight on a Sabouraud agar plate medium (Eiken Chemical Co., Ltd.), and the obtained culture was suspened in a sterilized physiological saline solution. Thus, a fungal solution for infection, having a concentration of 1×10^7 cells/ml, was prepared. This fungal solution was inoculated in a concentration of 0.2 ml (2×10^6 CFU/mouse) into the tail vein of each of five ICR male mice (4-week-old, body weight of 20±1 g). 2 hours later, 0.2 ml of a solution, which had been prepared by dissolving a test compound into a sterilized physiological saline solution and setting the concentration at 0.01 mg/ml, was administered once into the dorsal subcutis of each mouse. To mice of a control group, an equal amount of a sterilized physiological saline solution was administered.
Viability of the mice was observed until the 14th day after the infection, and the cumulative survival rate (T/C) of the treatment group to the control group was calculated, and the obtained value was used as an index of the life-prolonging effect.

[4] = Candida albicans, TIMM1623, 36 h
[5] = TIMM1623, Candida albicans TIMM 1623, SAAMF medium, 35° C., 36 hours, turbidity at 630 nm

Row | SMILES | IC50 [1, 4] [µg/mL] | further results
1 | N=C(N)c1ccc(OCCCNCCCOc2ccc(C(=N)N)cc2)cc1 [Example 32, 4-{3-[(3-{4-[amino(imino)methyl]phenoxy}propyl)amino]propoxy}benzamidine Hydrochloride] | 0.0313 | –
2 | N=C(N)c1ccc(OCCCN2CCN(CCCOc3ccc(C(=N)N)cc3F)CC2)c(F)c1 [Example 43, 4-{3-[4-(3-{4-[amino(imino)methyl]-2-fluorophenoxy}propyl)-1-piperazinyl]propoxy}-3-fluorobenzamidine Hydrochloride] | 0.0313 | –
3 | N=C(N)c1ccc(OCCCCNCCNCCCCOc2ccc(C(=N)N)cc2)cc1 [Example 26, 4-[4-({2-[(4-{4-[amino(imino)methyl]phenoxy}butyl)amino]ethyl}amino)butoxy]benzamidine Hydrochloride] | 0.0625 | –
4 | N=C(N)c1ccc(OCCCN2CCN(CCCOc3ccc(C(=N)N)c(F)c3)CC2)cc1F [Example 42, 4-{3-[4-(3-{4-[amino(imino)methyl]-3-fluorophenoxy}propyl)-1-piperazinyl]propoxy}-2-fluorobenzamidine Hydrochloride] | 0.0156 | –
5 | N=C(N)c1ccc(OCCCN2CCN(CCCOc3ccc(C(=N)N)cc3)CC2)cc1 [Example 40-2, 4-{3-[4-(3-{4-[amino(imino)methyl]phenoxy}propyl)-1-piperazinyl]propoxy}benzamidine hydrochloride] | 0.0039 | survival ratio on the 28th day after the infection [2]: 4/5
6 | N=C(N)c1ccc(OCCCN)cc1 [Example 9-2, 4-(3-aminopropoxy)benzamidine Hydrochloride] | 0.5 | –
7 | N=C(N)c1ccc(OCCCNCCNCCCOc2cccc(C(=N)N)c2)cc1 [Example 74, 3-[3-({2-[(3-{4-[amino(imino)methyl]phenoxy}propyl)amino]ethyl}amino)propoxy]benzamidine Hydrochloride] | 0.125 | –
8 | N=C(N)c1ccc(OCCNCCNCCOc2ccc(C(=N)N)cc2)cc1 [Example 25, 4-[2-({2-[(2-{4-[amino(imino)methyl]phenoxy}ethyl)amino]ethyl}amino)ethoxy]benzamidine Hydrochloride] | 0.0156 | –
9 | N=C(N)c1ccc(OCCCCCN)cc1 [Example 7, 4-[(5-aminopentyl)oxy]benzamidine Hydrochloride] | 0.5 | –
10 | N=C(N)c1ccc(OCCCN2CCN(CCCOc3ccc(C(=N)N)cc3)C(=O)C2=O)cc1 [Example 19, 4-{3-[4-(3-{4-[amino(imino)methyl]phenoxy}propyl)-2,3-dioxo-1-piperazinyl]propoxy}benzamidine acetate] | – | IC50 [1, 5]: 0.125 µg/mL
11 | CNCCCOc1ccc(C(=N)N)cc1 [Example 2, 4-[3-(methylamino)propoxy]benzamidine Hydrochloride] | 2 | –
12 | N=C(N)c1ccc(OCCCNCCNCCCOc2ccc(C(=N)N)cc2)cc1 [Example 24, 4-[3-({2-[(3-{4-[amino(imino)methyl]phenoxy}propyl)amino]ethyl}amino)propoxy]benzamidine hydrochloride] | 0.0078 | cumulative survival rate (T/C) of the treatment group to the control group [3]: 180; survival ratio on the 28th day after the infection [2]: 3/5
13 | N=C(N)c1ccc(OCCCNC2CCN(CCCOc3ccc(C(=N)N)cc3)C2)cc1 (stereo not shown) [Example 57, 4-(3-{3-[(3-{4-[amino (imino)methyl]phenoxy}propyl)amino]-1-pyrrolidinyl}propoxy)benzamidine Hydrochloride] | 0.0313 | –
14 | N=C(N)c1ccc(OCCCCN2CCN(CCCCOc3ccc(C(=N)N)cc3)C(=O)C2=O)cc1 [Example 21, 4-{4-[4-(4-{4-[amino(imino)methyl]phenoxy}butyl)-2,3-dioxo-1-piperazinyl]butoxy}benzamidine Acetate] | – | IC50 [1, 5]: 0.25 µg/mL
15 | N=C(N)c1ccc(OCCCN2CCN(CCOc3ccc(C(=N)N)cc3)C(=O)C2=O)cc1 [Example 22, 4-{3-[4-(2-{4-[amino(imino)methyl]phenoxy}ethyl)-2,3-dioxo-1-piperazinyl]propoxy}benzamidine Acetate] | – | IC50 [1, 5]: 2 µg/mL
16 | N=C(N)c1ccc(OCCCCN)cc1 [Example 5, 4-(4-aminobutoxy)benzamidine hydrochloride] | 0.25 | –
17 | N=C(N)c1ccc(OCCCNC2CCN(CCCOc3ccc(C(=N)N)cc3)CC2)cc1 [Example 58, 4-(3-{[1-(3-{4-[amino(imino)methyl]phenoxy}propyl)-4-piperidinyl]amino}propoxy)benzamidine Hydrochloride] | 0.0313 | –
18 | N=C(N)c1ccc(OCCCNCCCCCC(=O)O)cc1 [Example 3-2, 6-[(3-{4-[amino(imino)methyl]phenoxy}propyl)amino]hexanoic Acid Hydrochloride] | 0.5 | –
19 | N=C(N)c1ccc(OCCCN2CCCN(CCCOc3ccc(C(=N)N)cc3)CC2)cc1 [Example 55, 4-{3-[4-(3-{4-[amino(imino)methyl]phenoxy}propyl)-1,4-diazepan-1-yl]propoxy}benzamidine Hydrochloride] | 0.0156 | –
20 | N=C(N)c1ccc(OC/C=C/CN2CCN(CCCOc3ccc(C(=N)N)cc3)C(=O)C2=O)cc1 [Example 23, 4-({(E)-4-[4-(3-{4-[amino(imino)methyl]phenoxy}propyl)-2,3-dioxo-1-piperazinyl]-2-butenyl}oxy)benzamidine Acetate] | – | IC50 [1, 5]: 2 µg/mL
21 | N=C(N)c1ccc(OCCCN2CCC(CCOc3ccc(C(=N)N)cc3)CC2)cc1 [Example 56, 4-{2-[1-(3-{4-[amino(imino)methyl]phenoxy}propyl)-4-piperidinyl]ethoxy}benzamidine Hydrochloride] | 0.0039 | survival ratio on the 28th day after the infection [2]: 4/5
22 | N=C(N)c1ccc(OCCCNCCN)cc1 [Example 10, 4-{3-[(2-aminoethyl)amino]propoxy}benzamidine hydrochloride] | 1 | –
23 | N=C(N)c1ccc(OCCN2CCN(CCOc3ccc(C(=N)N)cc3)C(=O)C2=O)cc1 [Example 20, 4-{2-[4-(2-{4-[amino(imino)methyl]phenoxy}ethyl)-2,3-dioxo-1-piperazinyl]ethoxy}benzamidine Acetate] | – | IC50 [1, 5]: 0.125 µg/mL
24 | N=C(N)c1ccc(OCCCNCCNCCOc2ccc(C(=N)N)cc2)cc1 [Example 27, 4-[3-({2-[(2-{4-[amino(imino)methyl]phenoxy}ethyl)amino]ethyl}amino)propoxy]benzamidine Hydrochloride] | 0.0313 | –
